Measurements: patent US9561228B2 (Celgene Avilomics Research, Inc., priority 2013, dated 2017)

What follows are compounds tested against T1, MEK1 activated ERK1 (Homo sapiens, UniProt P27361) (assay: Omnia continuous-read kinase assay for potency against MEK1 activated ERK1). Conditions: MEK1 activated ERK1, ATP at KM; read-out: ERK1 Omnia WT ATP KM IC50.
T1 construct: purchased Millipore (Billerica, Mass.) 14-439-K
Assay type: biochemical
Description: Omnia Assay Protocol for Potency Assessment Against MEK1 Activated ERK1:
The protocol below describes continuous-read kinase assays to measure potency of compounds against activated ERK1 enzyme. The mechanics of the assay platform are best described by the vendor (Invitrogen, Carlsbad, Calif.) on their website at the following URL: invitrogen.com/site/us/en/home.html.
Briefly, a 1.25× stock of ERK1 enzyme (14-439-K) from Millipore (Billerica, Mass.), 5×ATP (AS001A) and ST17-Sox conjugated peptide substrate (KNZ1171C) were prepared in 1× kinase reaction buffer consisting of 20 mM Tris, pH 7.5, 5 mM MgCl2, 1 mM EGTA, 5 mM β-glycerophosphate, 5% glycerol (10× stock, KB002A) and 0.2 mM DTT. 10 μL of ATP/ST17-sox peptide substrate mix was combined with 0.5 μL volume of 100% DMSO and serially diluted compounds were prepared in 100% DMSO in a Corning (#3574) 384-well, white, non-binding surface microtiter plate (Corning, N.Y.). Kinase reactions were started with the addition of 40 μL of ERK1 solution and monitored every 71 seconds for 30-240 minutes at λex360/λem485 in a Synergy plate reader from BioTek (Winooski, Vt.). At the conclusion of each assay, progress curves from each well were examined for linear reaction kinetics and fit statistics (R^2, 95% confidence interval, absolute sum of squares). Initial velocity (0 minutes to ˜30+ minutes) from each reaction was determined from the slope of a plot of relative fluorescence units vs time (minutes or seconds) and then plotted against inhibitor concentration to estimate ^AppIC50 from log [Inhibitor] vs Response, Variable Slope model in GraphPad Prism from GraphPad Software (San Diego, Calif.).
[Reagent] used in optimized protocol:
[ERK1]=4 nM, [ATP]=50 μM, [ST17-Sox]=10 μM (ATP ^appKM 48 μM)
The results of this assay show the degree of inhibition of ERK activity, which is a direct measurement of inhibition of ERK activity. Results from this assay are reported in Table A under the column “ERK1 Omnia WT ATP KM IC50 (nM).”

T1 sequence (P27361 whole entry): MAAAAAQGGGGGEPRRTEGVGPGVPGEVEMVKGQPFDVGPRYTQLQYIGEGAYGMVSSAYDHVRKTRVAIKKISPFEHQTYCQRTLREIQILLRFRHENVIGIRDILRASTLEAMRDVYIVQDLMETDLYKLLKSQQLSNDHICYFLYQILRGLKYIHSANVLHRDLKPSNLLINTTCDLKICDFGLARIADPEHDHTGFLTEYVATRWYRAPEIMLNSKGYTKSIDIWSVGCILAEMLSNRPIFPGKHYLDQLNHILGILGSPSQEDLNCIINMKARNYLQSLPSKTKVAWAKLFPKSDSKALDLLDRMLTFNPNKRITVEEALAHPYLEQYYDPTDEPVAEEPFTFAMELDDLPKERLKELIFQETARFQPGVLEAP

`C=CC(=O)Nc1ccccc1Nc1nc(N[C@@H]2CCC[C@H](C(=O)NOC)C2)ncc1C(F)(F)F` (racemic) [Compound I-3, Rac-cis-3-((4-((2-acrylamidophenyl)amino)-5-(trifluoromethyl)pyrimidin-2-yl)amino)-N-methoxycyclohexanecarboxamide] was tested, and the IC50 was 0.101 to 0.5 µM.

What follows are compounds tested on ERK1/2 phosphorylation of p90RSK in HT29 cells (assay: pRSK MSD Assay in HT29 cells). Conditions: Homo sapiens, HT-29, read-out: ERK1/ERK2 PRSK MSD HT29 EC50.
Assay type: cell-based
Method: The protocol below describes an assay to measure the kinase activity of ERK1/2 to phosphorylate a substrate, p90RSK, in the presence or absence of a test compound. This experiment was conducted using a Mesoscale Discovery plate. The day before the assay, HT29 cells were split and plated at 50,000 cells/well in complete growth media. After allowing cells to adhere, the media was removed and replaced with media containing 0.1% FBS and incubated overnight. Blank MSD plates (Mesoscale Discovery, Cat # L15XA3) were coated with 25 μl/well RSK capture antibody (BD Biosciences, Cat. #610226) and incubated at 4° C. overnight, then blocked with 150 μl of 3% BSA solution. The next day, the media from the cell culture plate was removed and replaced with 100 μl of media containing a test compound and incubated for 120 minutes at 37° C. The media was removed and replaced with 55 μl per well of lysis buffer with protease inhibitors (Roche Biosciences, Cat. #11836170001) and phosphatase inhibitors (Sigma-Aldrich, Cat. # P-0044 and P-5726), followed by incubation at 4° C. for 30 minutes. 50 μl of lysate was transferred to a blocked MSD plate, followed by incubation at room temperature for 2 hours under constant shaking. The plate was washed 3 times with MSD wash buffer (Mesoscale Discovery, Cat. # R617TX), and 25 μl/well phospho-RSK (pRSK) detection antibody (Cell Signaling Technology, Cat. #9335) was added with Sulfo-tagged detection antibody (Mesoscale Discovery, Cat. # R32AB-1) diluted in 1% BSA in MSD wash buffer. This mixture was incubated for 1 hour at room temperature under constant shaking. The plate was washed 3 times, and 150 μl 1×MSD read buffer was added, followed by signal detection in an MSD plate reader.

`C=CC(=O)N[C@H]1CCCC1Nc1nc(N[C@H]2CCCN(C(C)=O)C2)ncc1C(F)(F)F` (stereo in doubt) [Compound I-24, N-((1S,2S)-2-((2-(((S)-1-Acetylpiperidin-3-yl)amino)-5-(trifluoromethyl)pyrimidin-4-yl)amino)cyclopentyl)acrylamide] and `CC#CC(=O)N[C@@H]1CCCC[C@H]1Nc1nc(N[C@H]2CCCN(C(=O)CO)C2)ncc1C(F)(F)F` [Compound I-33, N-((1R,2R)-2-((2-(((S)-1-(2-Hydroxyacetyl)piperidin-3-yl)amino)-5-(trifluoromethyl)pyrimidin-4-yl)amino)cyclohexyl)but-2-ynamide] cannot be ordered by EC50: > 1 µM for the first, > 1 µM for the second.

Compared with `C=CC(=O)Nc1ccccc1Nc1nc(N[C@H]2CCCN(C(=O)OC)C2)ncc1C(F)(F)F` [Compound I-17, (S)-Methyl 3-((4-((2-acrylamidophenyl)amino)-5-(trifluoromethyl)pyrimidin-2-yl)amino) piperidine-1-carboxylate], `C=CC(=O)Nc1ccccc1Nc1nc(N[C@@H]2CCN(C(=O)OC)C2)ncc1C(F)(F)F` [Compound I-61, (R)-Methyl 3-((4-((2-Acrylamidophenyl)amino)-5-(trifluoromethyl)pyrimidin-2-yl)amino)pyrrolidine-1-carboxylate] is higher in EC50: 0.101 to 0.5 µM for the first, > 1 µM for the second.

`CC#CC(=O)Nc1ccccc1Nc1nc(N[C@H]2CCCN(C(=O)CO)C2)ncc1C(F)(F)F` [Compound I-29, (S)—N-(2-((2-((1-(2-Hydroxyacetyl)piperidin-3-yl)amino)-5-(trifluoromethyl)pyrimidin-4-yl)amino)phenyl)but-2-ynamide] and `C=CC(=O)Nc1ccccc1Nc1nc(N[C@@H]2CCN(C(=O)CO)C2)ncc1C(F)(F)F` [Compound I-62, (R)—N-(2-((2-((1-(2-Hydroxyacetyl)pyrrolidin-3-yl)amino)-5-(trifluoromethyl)pyrimidin-4-yl)amino)phenyl)acrylamide] cannot be ordered by EC50: > 1 µM for the first, > 1 µM for the second.

First: C=CS(=O)(=O)N[C@@H]1CCCC[C@H]1Nc1nc(N[C@H]2CCCN(C(=O)CO)C2)ncc1C(F)(F)F [Compound I-36, N-((1R,2R)-2-((2-(((S)-1-(2-Hydroxyacetyl)piperidin-3-yl)amino)-5-(trifluoromethyl)pyrimidin-4-yl)amino)cyclohexyl)ethenesulfonamide]
Second: C=C(C)S(=O)(=O)Nc1cc(F)ccc1Nc1nc(N[C@H]2CCCN(C(=O)CO)C2)ncc1C(F)(F)F [Compound I-54, (S)—N-(5-Fluoro-2-((2-((1-(2-hydroxyacetyl)piperidin-3-yl)amino)-5-(trifluoromethyl)pyrimidin-4-yl)amino)phenyl)prop-1-ene-2-sulfonamide]
The EC50 of the first is lower: 0.501 to 0.999 µM for the first, > 1 µM for the second. The first is the more potent here.

`C=CC(=O)Nc1cc(C)ccc1Nc1nc(N[C@H]2CCCN(C(=O)c3ccccc3)C2)ncc1C(F)(F)F` [Compound I-44, (S)—N-(2-((2-((1-Benzoylpiperidin-3-yl)amino)-5-(trifluoromethyl)pyrimidin-4-yl)amino)-5-methylphenyl)acrylamide] and `C=CC(=O)Nc1ccccc1CNc1nc(N[C@H]2CCCN(C(=O)CO)C2)ncc1C(F)(F)F` [Compound I-45, (S)—N-(2-(((2-((1-(2-Hydroxyacetyl)piperidin-3-yl)amino)-5-(trifluoromethyl)pyrimidin-4-yl)amino)methyl)phenyl)acrylamide] cannot be ordered by EC50: > 1 µM for the first, > 1 µM for the second.

First: C=C(C)S(=O)(=O)Nc1cc(C)ccc1Nc1nc(NC2CCC(=O)CC2)ncc1C(F)(F)F [Compound I-53, N-(5-Methyl-2-((2-((4-oxocyclohexyl)amino)-5-(trifluoromethyl)pyrimidin-4-yl)amino)phenyl)prop-1-ene-2-sulfonamide]
Second: C=CC(=O)Nc1ccccc1Nc1nc(N[C@H]2CCCN(C(=O)C(C)C)C2)ncc1Cl [Compound I-137, (S)—N-(2-((5-chloro-2-((1-isobutyrylpiperidin-3-yl)amino)pyrimidin-4-yl)amino)phenyl)acrylamide]
The EC50 of the first is higher: > 1 µM for the first, 0.501 to 0.999 µM for the second.

First: C=CC(=O)Nc1ccccc1Nc1nc(N[C@H]2CCCN(C(=O)C3CC3)C2)ncc1Cl [Compound I-136, (S)—N-(2-((5-chloro-2-((1-(cyclopropanecarbonyl)piperidin-3-yl)amino)pyrimidin-4-yl)amino)phenyl)acrylamide]
Second: C/C=C/C(=O)Nc1ccccc1Nc1nc(Nc2cc(C(N)=O)ccc2C)ncc1Cl [Compound I-219, (E)-3-((4-((2-(but-2-enamido)phenyl)amino)-5-chloropyrimidin-2-yl)amino)-4-methylbenzamide]
The EC50 of the first is lower: 0.501 to 0.999 µM for the first, > 1 µM for the second. The first is the more potent here.

`C=CC(=O)N(C)c1ccccc1Nc1nc(Nc2cc(C(=O)NOC)ccc2C#N)ncc1Cl` [Compound I-197, 3-((5-chloro-4-((2-(N-methylacrylamido)phenyl)amino)pyrimidin-2-yl)amino)-4-cyano-N-methoxybenzamide] and `C=C(C)C(=O)Nc1ccccc1Nc1nc(Nc2cc(C(N)=O)ccc2C)ncc1Cl` [Compound I-217, 3-((5-chloro-4-((2-methacrylamidophenyl)amino)pyrimidin-2-yl)amino)-4-methylbenzamide] cannot be ordered by EC50: > 1 µM for the first, > 1 µM for the second.

`Cc1ccc(C(N)=O)cc1Nc1ncc(Cl)c(Nc2ccccc2NC(=O)/C=C/CN(C)C)n1` [Compound I-218, (E)-3-((5-chloro-4-((2-(4-(dimethylamino)but-2-enamido)phenyl)amino)pyrimidin-2-yl)amino)-4-methylbenzamide] and `CC(C)=CC(=O)c1ccccc1Oc1nc(Nc2cc(C(N)=O)ccc2C)ncc1Cl` [Compound I-223, 3-((5-chloro-4-(2-(3-methylbut-2-enoyl)phenoxy)pyrimidin-2-yl)amino)-4-methylbenzamide] cannot be ordered by EC50: > 1 µM for the first, > 1 µM for the second.

`CC(C)=CC(=O)c1ccccc1Oc1nc(Nc2ccc(F)cc2C)ncc1Cl` [Compound I-222, 1-(2-((5-chloro-2-((4-fluoro-2-methylphenyl)amino)pyrimidin-4-yl)oxy)phenyl)-3-methylbut-2-en-1-one] and `CC(C)=CC(=O)c1ccccc1Oc1nc(Nc2cc(C(N)=O)ccc2C)ncc1C(N)=O` [Compound I-271, 2-((5-carbamoyl-2-methylphenyl)amino)-4-(2-(3-methylbut-2-enoyl)phenoxy)pyrimidine-5-carboxamide] cannot be ordered by EC50: > 1 µM for the first, > 1 µM for the second.

`C=CC(=O)Nc1cc(C)ccc1Nc1nc(Nc2cc(Cl)nc(OC)c2)ncc1Cl` [Compound I-244, N-(2-((5-chloro-2-((2-chloro-6-methoxypyridin-4-yl)amino)pyrimidin-4-yl)amino)-5-methylphenyl)acrylamide] and `C=CC(=O)Nc1cc(Cl)ccc1Nc1nc(Nc2cc(Cl)nc(OC)c2)ncc1Cl` [Compound I-247, N-(5-chloro-2-((5-chloro-2-((2-chloro-6-methoxypyridin-4-yl)amino)pyrimidin-4-yl)amino)phenyl)acrylamide] fall in the same range of EC50: 0.101 to 0.5 µM for the first, 0.101 to 0.5 µM for the second.

`CC(=O)N1CCC[C@H](Nc2ncc(C(F)(F)F)c(N[C@@H]3[C@H](C(N)=O)[C@H]4C=C[C@@H]3C4)n2)C1` [Compound I-309, (1R,2R,3S,4S)-3-((2-(((S)-1-acetylpiperidin-3-yl)amino)-5-(trifluoromethyl)pyrimidin-4-yl)amino)bicyclo[2.2.1]hept-5-ene-2-carboxamide] was tested, and the EC50 was > 1 µM.
